Reference: the SangsterLogP compilation

Legend:
[1] = method code SF-AS, from DOI: 10.1021/bi00405a042
[2] = method code SF-AS, from DOI: 10.1021/jf60167a006
[3] = method code SF-AS, from DOI: 10.1021/acs.jmedchem.5b01455, PMID: 26523333; conditions: pH 7.4
[4] = method code SF, from DOI: 10.1016/s0969-8051(99)00063-3, PMID: 10628565; conditions: pH 7.4
[5] = method code SF-AS, from DOI: 10.1016/0378-5173(84)90231-x
[6] = method code SF-AS, from DOI: 10.1515/znc-1987-7-832, PMID: 2961152
[7] = method code SF-AS, from DOI: 10.1016/j.ejps.2010.09.003, PMID: 20854904; conditions: pH 10.0
[8] = not given; remark: listed apart in the source
[9] = not given; remark: listed apart in the source
[10] = method code SF-RC, from DOI: 10.1016/j.nucmedbio.2008.01.001, PMID: 18355684; conditions: pH 7.4
[11] = method code SF-HPLC, from DOI: 10.1248/cpb.37.2861, PMID: 2611948; conditions: pH 4.0
[12] = not given; remark: listed apart in the source
[13] = method code SF-HPLC, from DOI: 10.1016/s0021-9673(01)81976-2, PMID: 4066822
[14] = method code SF, from DOI: 10.1016/j.nucmedbio.2004.02.004, PMID: 15219281
[15] = method code SF-GLC, from DOI: 10.1007/s002679900238, PMID: 10486045
[16] = method code SF-AS, from DOI: 10.1016/j.bmc.2011.10.017, PMID: 22094277; conditions: pH 7.4
[17] = not given; remark: listed apart in the source
[18] = not given; remark: listed apart in the source
[19] = method code SF-AS, from Jha, T.; Debnath, A.; Mazumdar, A.; Sengupta, C.; De, A. (1986). Hansch analysis of antineoplastic agents, 5-N-substituted-2-p-substituted benzenesulfonyl-L-glutamines. Ind. J. Chem., Sect. B, …
[20] = not given; remark: listed apart in the source
[21] = not given; remark: listed apart in the source
[22] = pH 7.4
[23] = not given; remark: listed apart in the source
[24] = not given; remark: listed apart in the source
[25] = not given; remark: listed apart in the source
[26] = not given; remark: listed apart in the source
[27] = method code SF, from DOI: 10.1071/sr9810061
[28] = method code SF-GLC, from DOI: 10.1007/bf00224496
[29] = not given; remark: listed apart in the source
[30] = method code SF-AS, from KuchaÅ™, M.; Rejholec, V.; Miller, V. (1985). Chromatographically determined lipophilicity and intramolecular interactions of bioactive compounds. Pharmacochemistry Library, 8, 321-331.; conditions: pH 3.4
[31] = method code SF-AS, from DOI: 10.1016/s0021-9673(00)82600-x
[32] = not given; remark: listed apart in the source
[33] = method code SF-AS, from DOI: 10.1021/jm991080o, PMID: 10579844; conditions: pH 7.4
[34] = method code SF, from DOI: 10.1016/s0960-894x(01)80459-5
[35] = method code SF-AS, from DOI: 10.1002/jps.2600630206, PMID: 4204981
[36] = not given; remark: listed apart in the source
[37] = method code SF-AS, from DOI: 10.1039/ft9959100995

CNC(=O)CCc1c[nH]c2ccccc12
logP [1]: 1.23

CCOP(=O)(OCC)Oc1ccccc1
logP [2]: 1.64

COc1ncnc2c1ncn2[C@@H]1O[C@H](CO)C[C@H]1F
logP: 0.25

FCC(F)Cc1c[nH]c2ccccc12 (stereo unspecified)
logD [3]: 2.54

CC(=O)OCC1C(OC(C)=O)C(OC(C)=O)C(OC(C)=O)CN1Cc1cccc(I)c1 (stereo unspecified)
logD [4]: 3.16

CC(C)(C)[N+]([O-])=Cc1ccc(F)cc1
logP [5]: 1.42

CC(F)(F)Cc1c[nH]c2ccccc12
logD [3]: 3.3

CN(C(=O)N(CCCl)N=O)C1CC(C)(C)N(O)C(C)(C)C1
logP [6]: 1.7

CNC(=O)CCc1ccccc1
logP [1]: 1.17

O=C(CCN1CCOCC1)c1ccccc1
logD [7]: 1.24

CC[C@@H](CO)NCCN[C@@H](CC)CO
logP [8]: -0.4

CC(C)=CCC/C(C)=C/C=O
logP [9]: 3.76

CN1CCC=C(c2nsnc2SCCCF)C1
logD [10]: 2.4

O=c1[nH]c(=O)n(Cc2ccc(Cl)cc2)cc1F
logD [11]: 1.64

CCCC(C)(COC(N)=O)COC(N)=O
logP [12]: 1.12

COC1=CC(=O)C(OC)=C(OC)C1=O
logP [13]: 0.22

O=c1[nH]c(=O)n(C2CC(O)C(CO)O2)cc1/C=C/I (stereo unspecified)
logP [14]: 1.1

OC[C@@H]1C[C@@H](F)[C@H](n2cnc3c(Cl)ncnc32)O1
logP: 0.32

COC1=C(OC)C(=O)C(OC)=C(OC)C1=O
logP [13]: 0.41

CC1=CCC(C(C)C)=CC1
logP [15]: 4.5

CC(C)OC(=O)[C@@]1(C)[C@H](CO)CC=[N+]1[O-]
logD [16]: -0.96

CN(C)CCOC(=O)c1ccccc1
logD [7]: 1.76

Oc1ccc(CCOCC2CC2)cc1
logP [17]: 3

CN1CCC=C(c2nsnc2SCCC(F)(F)F)C1
logD [10]: 2.9

CCNc1nc(Cl)nc(NC(C)(C)C)n1
logP [18]: 3.06

NC(=O)CCC(NS(=O)(=O)c1ccccc1)C(=O)O (stereo unspecified)
logP [19]: 0.58

Cc1cccc(C2CNCCO2)c1 (stereo unspecified)
logP [20]: 1.52

Clc1cccc2cccc(Cl)c12
logP [21]: 4.41

CC(=O)Oc1ccccc1C(=O)OCCN(C)C(C)=O
logD [22]: 1.46

Cc1[nH]cnc1CSCCNC1=NC(=O)CN1
logP [23]: -0.5

CCC(O)(C(N)=O)c1ccccc1 (stereo unspecified)
logP [24]: 1.2

CCC(O)(CC(N)=O)c1ccccc1 (stereo unspecified)
logP [24]: 1.83

Clc1cc2ccccc2cc1Cl
logP [21]: 4.71

Cc1ncc(CNC(=O)N(CCCl)N=O)c(N)n1
logP [25]: 0.39

CCNc1nc(Cl)nc(N(CC)CC)n1
logP [18]: 3.07

COc1cccc(C(=O)O)c1OC
logP [26]: 1.94

CCOP(=O)(OCC)SCS(=O)(=O)C(C)(C)C
logP [27]: 2.76

Cc1nccn1CC1CCc2c(c3ccccc3n2C)C1=O (stereo unspecified)
logP [8]: 1.92

CC1(C)C2CCC1(C)C(OCCO)C2 (stereo unspecified)
logP [15]: 3.32

C=CC(=C)CCC=C(C)C
logP [28]: 4.5

CCCOC(=O)c1ccccc1
logP [26]: 3.23

CC(C)=CCCC(C)CCO (stereo unspecified)
logP [9]: 3.38

Cc1[nH]cnc1CSCCNc1cc(=O)cc[nH]1
logP [23]: 0.8

CC(C)(C)[N+]([O-])=Cc1ccccc1
logP [5]: 1.22

CCOC(=O)[C@@]1(C)[C@H](CO)CC=[N+]1[O-]
logD [16]: -1.3

O=C(CCCO[N+](=O)[O-])Oc1ccccc1C(=O)O
logP [29]: 1.95

CC(=O)Oc1ccccc1C(=O)OCS(C)=O (stereo unspecified)
logD [22]: 0.11

C=C(C)C1CC=C(C)CC1 (stereo unspecified)
logP [28]: 4.4

CC(O)(C(=O)O)c1ccccc1 (stereo unspecified)
logD [30]: 0.83

CCCCNC(=O)CCC(NS(=O)(=O)c1ccc(C)cc1)C(=O)O (stereo unspecified)
logP [19]: 0.02

OC[C@@H]1[C@@H](O)[C@H](O)[C@@H](O)CN1C/C=C/I
logD [4]: -0.37

CN(C)c1cnn(-c2ccccc2)c(=O)c1Cl
logP [31]: 1.55

Clc1cc2c(Cl)c(Cl)c(Cl)c(Cl)c2cc1Cl
logP [32]: 6.77

O=C(O)CCCC(=O)c1ccccc1
logD [30]: 1.49

CCC(O)c1c(O)c(=O)cc(C)n1C (stereo unspecified)
logD [33]: -0.13

Nc1ncnc2c1ncn2[C@@H]1O[C@H](CO)C[C@H]1O
logP [34]: -0.65

O=C[C@H](NC(=O)N(CCCl)N=O)[C@@H](O)[C@H](O)[C@H](O)CO
logP [25]: -1.02

CCCCCCCCCCCCCCCCOP(=O)(OCC1CC(O)C(n2cnc3c(N)ncnc32)O1)OCC1OC(n2cc(C)c(=O)[nH]c2=O)CC1N=[N+]=[N-] (stereo unspecified)
logP [34]: 3.26

CCOP(=O)(OCC)Oc1c(Cl)cc(SC)cc1Cl
logP [2]: 3.72

COCCc1ccc(O)cc1
logP [17]: 1.85

CCOP(=O)(OCC)SCS(=O)C(C)(C)C (stereo unspecified)
logP [27]: 2.66

CC(C)N1CCOC(c2cccc(Cl)c2)C1 (stereo unspecified)
logP [20]: 3.27

CC1CCC(NC(=O)N(CCCl)N=O)CC1 (stereo unspecified)
logP [6]: 3.25

O=C(CCCCCO[N+](=O)[O-])Oc1ccccc1C(=O)O
logP [29]: 2.49

O=c1[nH]c(=O)n([C@@H]2O[C@H](CO)[C@@H](O)[C@H]2F)cc1/C=C/I
logP [14]: 1.21

N#Cc1ccc(/C=C2\CCCc3ccccc3C2=O)cc1
logP [12]: 4.27

O=C(O)C1CCc2ccccc2O1 (stereo unspecified)
logP [35]: 1.9

CCc1c(O)c(=O)ccn1CCOC(C)=O
logD [33]: -0.24

COc1cnn(-c2ccccc2)c(=O)c1Br
logP [31]: 1.42

O=Cc1ccc2cccccc1-2
logP [36]: 2.64

CCC(C)(Oc1ccc(Cl)cc1)C(=O)O (stereo unspecified)
logP [35]: 2.9

Clc1cc2c(Cl)ccc(Cl)c2c(Cl)c1Cl
logP [32]: 6.46

CC(=O)c1ccc2cccccc1-2
logP [36]: 2.87

CC(=O)OCCOCn1cnc2cnc(N)nc21
logP [37]: -0.61

CC(=O)Nc1ncc2ncn(COCCOC(C)=O)c2n1
logP [37]: -1.05

O=c1[nH]c(=O)n(Cc2ccccc2)cc1F
logD [11]: 0.89
